Data as given in patent US20210355106A1, “NEW AMINO-PYRIMIDONYL-PIPERIDINYL DERIVATIVES, A PROCESS FOR THEIR PREPARATION AND PHARMACEUTICAL COMPOSITIONS CONTAINING THEM” (LES LABORATOIRES SERVIER, priority 2018, published 2021).

Legend:
[1] = test system: Z138 mantle cell lymphoma tumour cell lines; experiment: In vitro cytotoxicity, MTT assay; format: cell-based; conditions: Homo sapiens, Z-138; Z138 cells, exposed to the test compounds for 96 hours
Description: The cytotoxicity studies were evaluated by MTT [3-(4,5-dimethylthiaxol-2-yl)-2,5-diphenyltetrazolium bromide|assay and carried out on Z138 mantle cell lymphoma tumour cell lines. The cells are distributed onto microplates and exposed to the test compounds for 96 hours. MTT is then added for 4 hours and converted by NAD(P)H-dependent cellular oxidoreductase enzymes in forma/an, which has a purple color. The viable cell number is proportional to the production of formazan salts and cell viability can be quantified by the absorbance of the solution at 540 nm with a spectrophotometer (Carmichael et al., Cancer Res. 1987, 47, 936-942).

USP7 = biological target: T1, USP7 (Homo sapiens, UniProt Q93009, C315A); experiment: Inhibition of USP7 by Fluorescence Intensity (FLINT) readings, Ubiquitin-Rhodamine-110 substrate; format: biochemical; conditions: 0.25 nM His-His-USP7 (aa208-560), 60 minutes at 30° C. preincubation; Ki determined from IC50 according to Cer et al.
T1 construct: 0.25 nM His-His-USP7 (aa208-560, |C315A|) was incubated with compound; His-His (N)
Description: USP7 activity was measured using Rhodamine-110 c-terminal labelled Ubiquitin as a substrate (UbiQ Bio), Incubation with USP7 results in the release of Rhodamine-110 leading to an increase in fluorescence which can be used in the continuous measurement of USP7 activity.
The USP7 reactions were performed in a 50 μL volume, in 384 well black solid low binding plates (Corning #3575). The reaction buffer consisted of 100 mM Bicine pH 8.0, 0.01% TritonX 100, 1 mM TCEP, and 10% DMSO.
0.25 nM His-His-USP7 (aa208-560, |C315A|) was incubated with compound (final concentration 10% DMSO) for 60 minutes at 30° C. The reaction was then initiated by the addition of 50) nM Ubiquitin-Rhodamine-110 substrate or 4 μM Ubiquitin-Rhodamine-110 substrate and the plate read every 3 minutes for 21 minutes to measure the release of Rhodamine-110. Fluorescence Intensity (FLINT) readings were measured using a Biomek Neo plate reader (Ex.485 nm, Em.535 nm).
The inhibition of increasing doses of compound was expressed as a percentage reduction in kinetic rate compared to the kinetic rates established between ‘DMSO only’ and ‘total inhibition’ controls (no USP7). The inhibitory concentrations that gave a 50% reduction in kinetic rate (IC50) were determined, from 11-point dose response curves, in XL-Fit using a 4-Parameter Logistic Model 205 (Sigmoidal Dose-Response Model). The K, values were determined from the IC50 values according to Cer et al. Nucleic Acids Res. 2009, July 1; 37 (WebServer issue): W441-W445.

T1 sequence (Q93009 208-560 C315A): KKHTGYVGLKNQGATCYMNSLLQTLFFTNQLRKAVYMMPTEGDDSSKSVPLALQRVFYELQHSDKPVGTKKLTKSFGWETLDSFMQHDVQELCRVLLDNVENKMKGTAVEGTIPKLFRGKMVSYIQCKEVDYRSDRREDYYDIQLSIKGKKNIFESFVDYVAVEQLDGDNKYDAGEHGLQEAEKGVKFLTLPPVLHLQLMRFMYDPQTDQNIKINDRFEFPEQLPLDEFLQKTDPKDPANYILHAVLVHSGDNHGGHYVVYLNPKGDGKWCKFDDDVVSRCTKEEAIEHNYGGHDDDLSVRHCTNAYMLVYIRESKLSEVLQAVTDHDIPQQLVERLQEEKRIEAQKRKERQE

Ki (USP7) [nM] | SMILES | IC50 [1] [nM]
3 | Cc1ccc(-c2nc(C)c(C(=O)N3CC[C@@H](C(=O)N4CCC(O)(Cn5cnc(Oc6ccc(Cl)cc6)c(N)c5=O)CC4)[C@H](c4ccccc4)C3)s2)cn1 [Example 22, 5-amino-6-(4-chlorophenoxy)-3-[(4-hydroxy-1-{(3R,4R)-1-[4-methyl-2-(6-methylpyridin-3-yl)-1,3-thiazole-5-carbonyl]-3-phenylpiperidine-4-carbonyl}piperidin-4-yl)methyl]pyrimidin-4(3H)-one] | 4
7.46 | COc1cc(Cl)cc(Oc2ncn(CC3(O)CCN(C(=O)[C@@H]4CCN(C(=O)c5sc(-c6ccc(C)nc6)nc5C)C[C@H]4c4ccccc4)CC3)c(=O)c2N)c1 [Example 23, 5-amino-6-(3-chloro-5-methoxyphenoxy)-3-((4-hydroxy-1-((3R,4R)-1-[4-methyl-2-(6-methylpyridin-3-yl)-1,3-thiazole-5-carbonyl]-3-phenylpiperidine-4-carbonyl}piperidin-4-yl)methyl]pyrimidin-4(3/I)-one] | 2.77
4 | Cc1ccc(-c2nc(C)c(C(=O)N3CC[C@@H](C(=O)N4CCC(O)(Cn5cnc(Oc6ccc(Cl)c(F)c6)c(N)c5=O)CC4)[C@H](c4ccccc4)C3)s2)cn1 [Example 24, 5-amino-6-(4-chloro-3-fluorophenoxy)-3-[(4-hydroxy-1-{(3R,4R)-1-[4-methy-2-(6-methylpyridin-3-yl)-1,3-thiazole-5-carbonyl]-3-phenylpiperidine-4-carbonyl}piperidin-4-yl)methyl]pyrimidin-4(3H)-one] | 9.9
2.9 | COc1cc(Oc2ncn(CC3(O)CCN(C(=O)[C@@H]4CCN(C(=O)c5sc(-c6ccc(C)nc6)nc5C)C[C@H]4c4ccccc4)CC3)c(=O)c2N)ccc1F [Example 25] | 2.3
6.1 | Cc1ccc(-c2nc(C)c(C(=O)N3CC[C@@H](C(=O)N4CCC(O)(Cn5cnc(Oc6cccc(C(F)(F)F)c6)c(N)c5=O)CC4)[C@H](c4ccccc4)C3)s2)cn1 [Example 26] | 20
8.8 | Cc1ccc(-c2nc(C)c(C(=O)N3CC[C@@H](C(=O)N4CCC(O)(Cn5cnc(Oc6cccc(OC(F)(F)F)c6)c(N)c5=O)CC4)[C@H](c4ccccc4)C3)s2)cn1 [Example 27, 5-amino-3-[(4-hydroxy-1-((3R,4R)-1-[4-methyl-2-(6-methylpyridin-3-yl)-1,3-thiazole-5-carbonyl]-3-phenylpiperidine-4carbonyl}piperidin-4-yl)methyl]-6-[3-(trifluoromethoxy)phenoxy]pyrimidin-4(3H)-one] | 17
64.1 | Nc1c(Oc2ccc(F)cc2)ncn(CC2(O)CCN(C(=O)[C@@H]3CCN(C(=O)c4cscn4)C[C@H]3c3ccccc3)CC2)c1=O [Example 28, 5-amino-6-(4-fluorophenoxy)-3-[[4-hydroxy-1-[(3R,4R)-3-phenyl-1-thiazole-4-carbonyl)piperidine-4-carbonyl-4-piperidyl]methyl]pyrimidin-4-one] | 138
7.1 | Cc1nc(Br)sc1C(=O)N1CC[C@@H](C(=O)N2CCC(O)(Cn3cnc(Oc4ccc(F)cc4)c(N)c3=O)CC2)[C@H](c2ccccc2)C1 [Example 29, 5-amino-3-({1-[(3R,4R)-1-(2-bromo-4-methyl-1,3-thiazole-5-carbonyl)-3-phenylpiperidine-4-carbonyl]-4-hydroxypiperidin-4-yl}methyl)-6-(4-fluorophenoxy)pyrimidin-4(3H)-one] | 1.8
28.4 | Nc1c(Oc2ccc(F)cc2)ncn(CC2(O)CCN(C(=O)[C@@H]3CCN(S(=O)(=O)c4ccccc4)C[C@H]3c3ccccc3)CC2)c1=O [Example 30, 5-amino-3-({1-[(3R,4R)-1-(benzenesulfonyl)-3-phenyl-piperidine-4-carbonyl]A-hydroxy-4-piperidyl]methyl]-6-(4-fluorophenoxy)pyrimidin-4-one] | 9.1
9.15 | Nc1c(Oc2ccc(F)cc2)ncn(CC2(O)CCN(C(=O)[C@@H]3CCN(C(=O)c4cccc(Br)c4)C[C@H]3c3ccccc3)CC2)c1=O [Example 31, 5-amino-3-({1-((3R,4R)-1-(3-bromobenzoyl)-3-phenylpiperidine-4carbonyl]-4-hydroxypiperidin-4-yl)methyl)-6-(4-fluorophenoxy)pyrimidin-4(3H)-one] | 5.45
7.77 | Nc1c(Oc2ccc(F)cc2)ncn(CC2(O)CCN(C(=O)[C@@H]3CCN(C(=O)c4cncc(Br)c4)C[C@H]3c3ccccc3)CC2)c1=O [Example 33, 5-amino-3-({1-[(3R,4R)-1-(5-bromopyridine-3-carbonyl)-3-phenylpiperidine-4-carbonyl]-4-hydroxypiperidin-4-yl}methyl)-6-(4-fluorophenoxy)pyrimidin-4(3)-one] | 2.55
3.58 | Cc1ccc(-c2cncc(C(=O)N3CC[C@@H](C(=O)N4CCC(O)(Cn5cnc(Oc6ccc(F)cc6)c(N)c5=O)CC4)[C@H](c4ccccc4)C3)c2)cn1 [Example 34, 5-amino-6-(4-fluorophenoxy)-3-({4-hydroxy-1-[(3R,4R)-1-(6′-methyl[3,3′-bipyridine]-5-carbonyl)-3-phenylpiperidine-4-carbonyl]piperidin-4-yl}methyl)pyrimidin-4(3H)-one] | 11
11.3 | Nc1c(Oc2ccc(F)cc2)ncn(CC2(O)CCN(C(=O)[C@@H]3CCN(C(=O)c4cncc(-c5ccccc5)c4)C[C@H]3c3ccccc3)CC2)c1=O [Example 35, 5-amino-6-(4-fluorophenoxy)-3-({4-hydroxy-1-[(3R,4R)-3-phenyl-1-(5-phenylpyridine-3-carbonyl)piperidine-4-carbonyl]piperidin-4-yl}methyl)pyrimidin-4(3H)-one] | 5
15.1 | Nc1c(Oc2ccc(F)cc2)ncn(CC2(O)CCN(C(=O)[C@@H]3CCN(C(=O)c4ccccc4)C[C@H]3c3ccccc3)CC2)c1=O [Example 36] | 8.93
13.6 | Cn1c(C(=O)N2CC[C@@H](C(=O)N3CCC(O)(Cn4cnc(Oc5ccc(F)cc5)c(N)c4=O)CC3)[C@H](c3ccccc3)C2)cc2ccccc21 [Example 37, 5-amino-6-(4-fluorophenoxy)-3-({4-hydroxy-1-[(3R,4R)-1-(1-methyl-1H-indole-2-carbonyl)-3-phenylpiperidine-4-carbonyl]piperidin-4-yl}methyl)pyrimidin-4(3H)-one] | 6.66
14 | Cn1c(C(=O)N2CC[C@@H](C(=O)N3CCC(O)(Cn4cnc(Oc5ccc(F)cc5)c(N)c4=O)CC3)[C@H](c3ccccc3)C2)ccc1-c1ccccc1 [Example 38] | 11
8.2 | Nc1c(Oc2ccc(F)cc2)ncn(CC2(O)CCN(C(=O)[C@@H]3CCN(C(=O)c4sc(I)cc4F)C[C@H]3c3ccccc3)CC2)c1=O [Example 39, 5-amino-3-({1-[(3R,4R)-1-(3-fluoro-5-iodothiophene-2-carbonyl)-3-phenylpiperidine-4-carbonyl]-4-hydroxypiperidin-4-yl}methyl)-6-(4-fluorophenoxy)pyrimidin-4(3H)-one] | 13
4.19 | Cc1ccc(-c2cc(F)c(C(=O)N3CC[C@@H](C(=O)N4CCC(O)(Cn5cnc(Oc6ccc(F)cc6)c(N)c5=O)CC4)[C@H](c4ccccc4)C3)s2)cn1 [Example 40] | 1.7
